# Measurements from patent US10106854B2, “Biomarkers for prostate cancer” (Aarhus Universitet, priority 2012, dated 2018).
# System: BPH1, PNT1A, LNCaP, 22rv1, PC3 and DU145 cell lines
# Assay: 5-aza-dC treatment, RNA extraction and RT-qPCR
# Assay type: cell-based, human
# Conditions: prostatic cell lines, 1 μM 5-aza-dC for two days, five day recovery; when methylation was reduced, not when DNA methylation levels were unaffected
# Method: BPH1, PNT1A, LNCaP, 22rv1, PC3 and DU145 cell lines at >50% confluence were treated with 1 μM freshly prepared 5-aza-2′-deoxycytidine (5-aza-dC) in 50% acetic acid (Sigma, cat. no.: A3656) for two days. After a five day recovery period, DNA was purified as described above. RNA was purified using the RNeasy Mini kit from Qiagen and stored at −80° C. One μg RNA was reverse transcribed using 100 pmol oligo-dT(24) primer and the SuperScript II Reverse Transcriptase kit (Invitrogen). Taqman® gene expression assays: AOX1 (Hs01565232_m1), C1orf114 (Hs00982321_g1), GAS6 (Hs01090305_m1), and HAPLN3 (Hs00820260_m1) were used with Taqman Mastermix no UNG. UBC was used for normalization (primers: 5′-GATTTGGGTCGCGGTTCTT-3′ and 5′-[…]-3′ used with Power Sybr Green Mastermix). Assays were run twice in triplicate in 10 μL reactions. Reactions were mixed and run as described for qMSP assays.
smiles,measurement,value
"Nc1ncn([C@H]2C[C@H](O)[C@@H](CO)O2)c(=O)n1 [5-aza-dC, 5-aza-2′-deoxycytidine]",RNA expression from DNA hypermethylated genes,generally stimulated RNA expression
